Measured values taken from patent US4079140A, “Benzothienyl aminoethyl ketones and their application in therapeutics” (Innothera, priority 1975, dated 1978).
Values after ≈ are worked out from the molar mass of the structure shown. Values joined by “and” are separate entries in the source; they are usually repeats but may differ in a detail not shown here. Equal entries are not always repeated. Structures can show the parent of a compound that is named as a salt. Where two headings read alike, the source gives them in different places.

Legend:
[1] = Acute oral toxicity (LD 50), Miller and Tainter; conditions: mouse, in vivo; for LD50 at 168 h: mice deprived of food 18 hours, oral (esophageal probe), mortality followed seven days, read-out: LD 50 (50% lethal dose)
Description: Acute toxicity of compounds of formula (I) was measured orally (esophageal probe) on mice deprived of food 18 hours before the beginning of the test. The products were suspended in a solution of dilute carboxymethyl cellulose. Calculation of the 50% lethal dose was carried out according to the method of Miller and Tainter (Miller L. C., Tainter M. L., proc. Soc. Exptl. Biol. Med. 1944, 57, 261-264).
The mortality rate was checked for seven days following the treatment.

[2] = tested on: isolated heart of a guinea-pig; test: Vasodilatatory activity, coronary flow of isolated perfused heart; conditions: for activation at 10 µg/mL: Cavia porcellus, compound 1 × 10^-5 g/ml, Locke solution, 37° C, at climax of activity, read-out: P (X): percentage of coronary flow increase; for ratio P (X)/P (R): X and Dipyridamole both 1 × 10^-5 g/ml, head is drawing 21
Description: The percentage of flow increase (P) is calculated at the climax of the activity of X or R.

human blood-plaques = test: Blood-plaque aggregation inhibition in B.P.R.P. (D.P.A., adrenaline, collagene); conditions: for a(X): blood-plaque aggregation inhibiting activity, D.P.A. / a(X): blood-plaque aggregation inhibiting activity, Adrenaline: compound 2.5 × 10^-5 g/ml; for ratio of activities a(X)/a(R), D.P.A. / ratio of activities a(X)/a(R), Adrenaline: X 2.5 × 10^-5 g/ml vs Dipyridamole 5 × 10^-4 g/ml; for ratio of activities a(X)/a(R), D.P.A.: head is drawing 13; for ratio of activities a(X)/a(R), Adrenaline: head is drawing 15; for a(X): blood-plaque aggregation inhibiting activity, Collagene: compound 2 × 10^-5 g/ml; for ratio of activities a(X)/a(R), Collagene: X 2 × 10^-5 g/ml vs Dipyridamole 2 × 10^-4 g/ml, head is drawing 16
rat's isolated duodenum = test: Spasmolytic activity on isolated duodenum, barium chloride contraction (Magnus); conditions: for relative activity, ratio of ED 50 (papaverine hydrochloride = R): 2 = twice the activity of papaverine hydrochloride, head is drawing 18; for IC50: Rattus norvegicus
Description: Spasmolytic activity was studied on a rat's isolated duodenum maintained in a survival medium of an aerated Tyrode solution heated to 38° C, according to the technique of Magnus (Magnus R. -- Archiv. ges. Physiol., 1905, 180, 1-71).
The contracting agent was barium chloride, the reference antagonist agent being papaverine hydrochloride (R). The average activity of compounds of formula I (X) compared to that of the reference agent were expressed by calculating the ratio of 50 efficient doses (ED 50) determined graphically on logarithmic paper: [formula]
For example: a substance having a relative activity expressed by the figure 2 has an activity equal to twice that of papaverine hydrochloride.

[3] = tested on: phenylparaquinone (P.P.Q.) painful syndrome in mouse; test: Analgesic and anti-inflammatory activity (P.P.Q. painful syndrome); format: in vivo; conditions: for a (X): percentage activity, P.P.Q.: 50 mg/kg digestively; for ratio of activity of X in relation to R, P.P.Q.: X 50 mg/kg vs Glafenine 25 mg/kg, 0.5 = half the activity of reference, head is drawing 19
Description: The intraperitoneal injection of phenylparaquinone (P.P.Q.) to a mouse causes the appearance of a painful syndrome appearing within 5 minutes of the injection and disappearing after about 30 minutes (Siegmund E. A., Cadmus A., Lu G., J. Pharmacol. Exp. Therap. 1957, 119, 453).
This painful syndrome manifests itself in the animal by a series of characteristic crises more or less close together and fleeting, during which can be noted a twisting or stretching of the body, a hollowing of the sides and a stretching of the hind legs.
It is then possible to note the number of crises in a given interval of time.
The preventive administration of analgesic or anti-inflammatory substances prevents the appearance of the crises and reduces the frequence thereof.
The reference substance used in the tests (R) is the ester of N-(7-chloro-4-quinolyl) anthrilic acid and 2,3-dihydroxy n. propanol (known under the trademark "Glafenine").
It is administered orally as a dose of 25 mg/kg.
The compounds of formula I (X) were administered digestively as a dose of 50 mg/kg.
The interval of time (t) chosen for calculating the analgesic activity was between 10 and 15 minutes after injection of P.P.Q. which is the period of maximum frequency of the crises. This activity was expressed in the following manner;
n: the number of crises observed in controle mice;
n': the number of crises observed in mice previously treated with the reference substance (R);
n": the number of crises observed in mice having received substance (X)
The percentage activity of R is equal to: [formula] The percentage activity of X is equal to: [formula] The activity of X in relation to R is estimated by the ratio: [formula]

[4] = barium chloride contraction, Tyrode solution, 38° C, read-out: ED 50 (X), spasmolytic activity
[5] = crises 10 to 15 minutes after P.P.Q.

Structure (SMILES): O=C(CCN1CCCCCC1)c1cc2ccccc2s1 [Compound 1, 1-(benzothien-2'yl) 3-N-perhydroazepino propanone oxalate]
- LD50 at 168 h [1]: 1200 mg/kg
- activation at 10 µg/mL [2]: 66%
- ratio P (X)/P (R) [2]: 0.87
- a(X): blood-plaque aggregation inhibiting activity, D.P.A. (human blood-plaques; D.P.A.-induced): 54%
- ratio of activities a(X)/a(R), D.P.A. (human blood-plaques): 7.5 × 10^-1
- a(X): blood-plaque aggregation inhibiting activity, Adrenaline (human blood-plaques; adrenaline-induced): 6%
- ratio of activities a(X)/a(R), Adrenaline (human blood-plaques): 6 × 10^-2
- a(X): blood-plaque aggregation inhibiting activity, Collagene (human blood-plaques; collagene-induced): 91%
- ratio of activities a(X)/a(R), Collagene (human blood-plaques): 2.5

Structure (SMILES): CN(C)CCC(=O)c1cc2ccccc2s1 [Compound 2]
- LD50 at 168 h [1]: 960 mg/kg
- relative activity, ratio of ED 50 (papaverine hydrochloride = R) (rat's isolated duodenum): 2.64
- IC50 (rat's isolated duodenum; [4]): 1.6 µg/mL (≈ 6.86 µM)
- a (X): percentage activity, P.P.Q. [3, 5]: 36%
- ratio of activity of X in relation to R, P.P.Q. [3]: 0.51
- activation at 10 µg/mL [2]: 64%
- ratio P (X)/P (R) [2]: 0.4
- ratio of activities a(X)/a(R), D.P.A. (human blood-plaques): 1.4
- a(X): blood-plaque aggregation inhibiting activity, Adrenaline (human blood-plaques; adrenaline-induced): 98%
- ratio of activities a(X)/a(R), Adrenaline (human blood-plaques): 1
- a(X): blood-plaque aggregation inhibiting activity, Collagene (human blood-plaques; collagene-induced): 74%
- ratio of activities a(X)/a(R), Collagene (human blood-plaques): 1.75

Structure (SMILES): C=CCN(CC=C)CCC(=O)c1cc2ccccc2s1 [Compound 3]
- LD50 at 168 h [1]: 1000 mg/kg
- a (X): percentage activity, P.P.Q. [3, 5]: 58%
- ratio of activity of X in relation to R, P.P.Q. [3]: 0.75
- a(X): blood-plaque aggregation inhibiting activity, Adrenaline (human blood-plaques; adrenaline-induced): 64%
- ratio of activities a(X)/a(R), Adrenaline (human blood-plaques): 7 × 10^-1
- a(X): blood-plaque aggregation inhibiting activity, Collagene (human blood-plaques; collagene-induced): 17%
- ratio of activities a(X)/a(R), Collagene (human blood-plaques): 2.5 × 10^-1

Structure (SMILES): O=C(CCN1CCCCC1)c1cc2ccccc2s1 [Compound 4]
- LD50 at 168 h [1]: > 1100 mg/kg
- relative activity, ratio of ED 50 (papaverine hydrochloride = R) (rat's isolated duodenum): 1.69
- IC50 (rat's isolated duodenum; [4]): 3.1 µg/mL (≈ 11.3 µM)
- a (X): percentage activity, P.P.Q. [3, 5]: 25%
- ratio of activity of X in relation to R, P.P.Q. [3]: 0.33
- a(X): blood-plaque aggregation inhibiting activity, D.P.A. (human blood-plaques; D.P.A.-induced): 63%
- ratio of activities a(X)/a(R), D.P.A. (human blood-plaques): 1.2
- a(X): blood-plaque aggregation inhibiting activity, Adrenaline (human blood-plaques; adrenaline-induced): 89%
- ratio of activities a(X)/a(R), Adrenaline (human blood-plaques): 1.1
- a(X): blood-plaque aggregation inhibiting activity, Collagene (human blood-plaques; collagene-induced): 91%
- ratio of activities a(X)/a(R), Collagene (human blood-plaques): 2.2

Structure (SMILES): O=C(CCN1CCOCC1)c1cc2ccccc2s1 [Compound 5]
- LD50 at 168 h [1]: > 1100 mg/kg
- a (X): percentage activity, P.P.Q. [3, 5]: 54%
- ratio of activity of X in relation to R, P.P.Q. [3]: 0.76
- a(X): blood-plaque aggregation inhibiting activity, Adrenaline (human blood-plaques; adrenaline-induced): 44%
- ratio of activities a(X)/a(R), Adrenaline (human blood-plaques): 4.6 × 10^-1
- a(X): blood-plaque aggregation inhibiting activity, Collagene (human blood-plaques; collagene-induced): 45%
- ratio of activities a(X)/a(R), Collagene (human blood-plaques): 1.25

Structure (SMILES): OCCN(CCO)c1nc(N2CCCCC2)c2nc(N(CCO)CCO)nc(N3CCCCC3)c2n1 [Dipyridamole, reference compound]
- LD50 ([1]; po, reference product of the aggregation test, source of value not given): 2150 mg/kg
- a(R): blood-plaque aggregation inhibiting activity of reference, D.P.A. (human blood-plaques; D.P.A.-induced, reference 5 × 10^-4 g/ml, tested beside the compound of the same line): 72% and 53%
- a(R): blood-plaque aggregation inhibiting activity of reference, Adrenaline (human blood-plaques; adrenaline-induced, reference 5 × 10^-4 g/ml, tested beside the compound of the same line): 96% and 91% and 90% and 80%
- a(R): blood-plaque aggregation inhibiting activity of reference, Collagene (human blood-plaques; collagene-induced, reference 2 × 10^-4 g/ml, tested beside the compound of the same line): 36% and 42% and 67%

Structure (SMILES): O=C(OCC(O)CO)c1ccccc1Nc1ccnc2cc(Cl)ccc12 (stereo not shown) [Glafenine, ester of N-(7-chloro-4-quinolyl) anthrilic acid and 2,3-dihydroxy n. propanol, reference compound]
- a (R): percentage activity of reference, P.P.Q. ([3]; 25 mg/kg orally, crises 10 to 15 minutes after P.P.Q., tested beside the compound of the same line): 71% and 77% and 75%

Structure (SMILES): COc1ccc(Cc2nccc3cc(OC)c(OC)cc23)cc1OC [papaverine hydrochloride, reference compound]
- IC50 (rat's isolated duodenum; read-out: ED 50 (R), spasmolytic activity of reference, barium chloride contraction, Tyrode solution, 38° C, tested beside the compound of the same line): 4.25 µg/mL
